Experimental data taken from US10413517B2, “Composition and method for the treatment of neurological diseases and cerebral injury” (UNIVERSITY OF NOTRE DAME DU LAC, priority 2014, dated 2019).

Key:
Assay type in all cases: in vivo, mouse
[1] = tested on: Npc1 transcript; assay: qPCR of Npc1 transcript in brain; conditions: at 100 days
Description: (§1) Vorinostat (50 mg/Kg)—Vorinostat was first dissolved in DMSO (100 mg/ml) and then diluted with 9 volume of Polyethylene Glycol 400 (PEG). This drug solution was named as ‘solution A’. Solution A was diluted with equal volume of water where the final concentration of each component was as follows; Vorinostat, 5 mg/ml; DMSO, 5% and PEG, 45%. Mice were given weekly intraperitoneal (i.p) injections starting at 21 days. Vorinostat (100 mg/Kg)—Vorinostat was first dissolved in DMSO (200 mg/ml) and then mixed with 9 volumes of PEG. Rest of the methods and injections plan were as described above. HPBCD (4000 mg/Kg)—40% HPBCD solution prepared in water. Mice were given weekly i.p injections starting at 7 days. HPBCD (2000 mg/Kg)—20% HPBCD solution prepared in water. Mice were given weekly i.p injections starting at 7 days. TCF (Vorinostat, 50 mg/Kg+HPBCD, 2000 mg/Kg, DMSO, 5%+PEG, 45%)—To prepare the formulation, the ‘solution A’ was first prepared as described above and equal volume of 40% HPBCD solution was slowly layered on top of it. The solution was gently mixed for 10 min at RT on rocker set at medium speed. […]
(§2) Quantitative PCR (qPCR) was performed using Power SYBR Green RNA-to-CT 1-Step Kit and an ABI Prism 7500 Fast real-time PCR system (Applied Biosystems, Grand Island, USA). […] The relative amount of transcript was determined using comparative CT method. […]

[2] = tested on: Npc1^nmf164 mice; assay: Neurobehavioral assessment (cumulative disease score 0-13); conditions: for cumulative neurobehavioral disease score: at 105-112 days, scale 0-13, Vo 50 mg/Kg, 2×HPBCD 4000 mg/Kg, TCF; for onset of individual symptoms (gait, grooming, limb tone, weight): weekly i.p. treatment
Description: A modified version of previously described method (Carroll et al., 2010) was used for assessing the neurobehavioral functions in mice. Six different parameters (FIG. 3A) associated with neurobehavioral functions of mice were assessed. Each mouse was assessed individually in an observation box (length, 31.8 cm, width, 19.8 cm and height, 10.5 cm) with a grid floor. A mouse was assessed for tremor (0 and 2), body position (0, 1 and 2), gait (0, 1 and 2), grooming (0, 1 and 2), limb tone (0, 1 and 2), and weight loss (0, 1, 2 and 3). For each symptom except weight, a mouse received a score 0 if no symptom was observed and score 2 when the most severe impairment in the function was seen. A mouse was given score 0 for weight loss below 5%, 1 for 5-10%, 2 for >10 and up to 20%, and 3 for >20 up to 30%. A cumulative score of 0-3 correlate with no neurobehavioral impairment and a score of 13 is the most impaired neurobehavioral function. Operator-independence scoring was also tested by two independent blinded operators on 6 NPC (Npc1^nmf164) and 4 healthy control (Npc1^+/nmf164) mice.

[3] = tested on: Calbindin1 transcripts; assay: qPCR of Calbindin1 transcripts in the brain; conditions: day 100, once weekly dosing; Vo 50 mg/Kg; 2×HPBCD 4000 mg/Kg; TCF
Description: as §1, §2

[4] = tested on: histone H3 and H4; assay: Histone acetylation in the brain (western blot); conditions: within an hour of i.p. administration; Vo 50 mg/Kg in PEG; HPBCD 2000 mg/Kg
Description: Npc1^nmf164 mice (6-7 weeks) were injected with either Vorinostat (50 mg/kg) or TCF through i.p route. Mice were sacrificed 1 hpi (1 hour post-injection) by asphyxiation using CO2. After homogenization of tissue, Histones were extracted using EpiQuik Total Histone extraction kit (Epigentek, NY, USA) as per manufacturer's instructions. Antibodies to Histone H3 (Lys14) and H4 (Lys5/8/12/16) from Millipore (CA, USA) were used in western blotting.

Structure (SMILES) | Npc1 transcript levels in the brain [1] | cumulative neurobehavioral disease score [2] | onset of individual symptoms (gait, grooming, limb tone, weight) [2] | expression of calbindin transcripts in the brain [3] | acetylation of histone 3 or 4 (H3 or H4) in the brain (in words) [4]
CC(O)COC[C@H]1O[C@@H]2O[C@H]3[C@H](O)[C@@H](O)[C@@H](O[C@H]4[C@H](O)[C@@H](O)[C@@H](O[C@H]5[C@H](O)[C@@H](O)[C@@H](O[C@H]6[C@H](O)[C@@H](O)[C@@H](O[C@H]7[C@H](O)[C@@H](O)[C@@H](O[C@H]8[C@H](O)[C@@H](O)[C@@H](O[C@H]1[C@H](O)[C@H]2O)O[C@@H]8COCC(C)O)O[C@@H]7COCC(C)O)O[C@@H]6COCC(C)O)O[C@@H]5COCC(C)O)O[C@@H]4COCC(C)O)O[C@@H]3COCC(C)O (stereo partly drawn) [HPBCD, 2-Hydroxypropyl-β-cyclodextrin] | little or no effect on brain Npc1 transcript levels | 6-8 | Worsening in gait, grooming and weight were also delayed by 2×HPBCD, but less so than by the TCF | no change or depressed levels of calbindin transcripts | neither vehicle control (PEG+DMSO) nor HPBCD stimulated significant acetylation
O=C(CCCCCCC(=O)Nc1ccccc1)NO [vorinostat] | little or no effect on brain Npc1 transcript levels | 9-11 | no consistent, significant advantage in any symptomatic read out | no change or depressed levels of calbindin transcripts | low levels of acetylation
